Data set [1] can be described thus: Inhibition of BCRP (unknown origin) transfected in human HEK293/R2 cells assessed as potentiation of topotecan-induced cytotoxicity measured as topotecan IC50 at 1 uM (Rvb = 531.5 +/- 180 nM).
The nature of data set [2]: Inhibition of P-gp (unknown origin) expressed in human LCC6MDR cells assessed as reversal of paclitaxel resistance after 5 days by MTS/PMS assay.
The nature of data set [3]: Inhibition of BCRP (unknown origin) transfected in HEK293/R2 cells assessed as reversal of topotecan resistance after 5 days by MTS/PMS assay.
Data set [4] can be described thus: Inhibition of BCRP in human MCF7/MX100 cells assessed as reversal of topotecan resistance after 5 days by MTS/PMS assay.
A short description of data set [5]: Inhibition of P-gp (unknown origin) expressed in human LCC6MDR cells assessed as potentiation of mitoxantrone-induced cytotoxicity after 5 days by MTS/PMS assay.
A short description of data set [6]: Inhibition of BCRP (unknown origin) expressed in human HEK293/R2 cells assessed as potentiation of mitoxantrone-induced cytotoxicity after 5 days by MTS/PMS assay.
Data set [7] is described as follows: Inhibition of MRP1 in human 2008/MRP1 cells assessed as reduction in cell viability after 5 days by MTS/PMS assay.
Data set [8] can be described thus: Inhibition of MDR in human LCC6MDR cells assessed as reduction in cell viability after 5 days by MTS/PMS assay.

Consider `COC(=O)c1cccc(COc2c(-c3ccc(OCCOCCn4cc(CCCc5cn(CCOCCOc6ccc(-c7oc8ccccc8c(=O)c7OCc7cccc(C(=O)OC)c7)cc6)nn5)nn4)cc3)oc3ccccc3c2=O)c1`, for which the IC50 in data set [1] stood at 19 nM. In addition, the EC50 was more than 1000 nM in data set [2], 6.1 nM in data set [3] and 2.4 nM in data set [4].
For the molecule `COC(=O)c1cccc(COc2c(-c3ccc(OCCOCCn4cc(-c5cccc(-c6cn(CCOCCOc7ccc(-c8oc9ccccc9c(=O)c8OCc8cccc(C(=O)OC)c8)cc7)nn6)c5)nn4)cc3)oc3ccccc3c2=O)c1`, the EC50 in data set [5] was more than 2000 nM; in data set [6], 11 nM; in data set [2], more than 1000 nM; in data set [3] it was 2.2 nM; in data set [4], 1.1 nM. Further, the IC50 in data set [1] came to 25 nM.
Consider `COC(=O)c1cccc(COc2c(-c3ccc(OCCOCCn4cc(CN(Cc5ccccc5)Cc5cn(CCOCCOc6ccc(-c7oc8ccccc8c(=O)c7OCc7cccc(C(=O)OC)c7)cc6)nn5)nn4)cc3)oc3ccccc3c2=O)c1`, for which the IC50 in data set [1] was found to be 15 nM. The EC50 in data set [2] is more than 1000 nM; in data set [3], 5.3 nM; in data set [4], 3.3 nM.
As to `COC(=O)c1cccc(COc2c(-c3ccc(OCCOCCn4cc(COCc5cn(CCOCCOc6ccc(-c7oc8ccccc8c(=O)c7OCc7cccc(C(=O)OC)c7)cc6)nn5)nn4)cc3)oc3ccccc3c2=O)c1`, in data set [1], the IC50 came to 20 nM. In addition, the EC50 in data set [2] was more than 1000 nM; in data set [3], 4.2 nM; in data set [4], 2.1 nM.
For the molecule `Cc1ccc2oc(-c3ccc(OCCOCCOCCOCCOCCOc4ccc(-c5cc(=O)c6cc(C)ccc6o5)cc4)cc3)cc(=O)c2c1` [1,16-Bis[40-((6-methyl)-4H-chromen-4-on-2-yl)phenyl]-1,4,7,10,13,16-hexaoxahexadecane], the values for the EC50 in data set [2], in data set [3] and in data set [4] were 264 nM, 65 nM and 63 nM, respectively.
As for `COc1ccc2c3c([nH]c2c1)[C@H](CC(C)C)N1C(=O)[C@H](CCC(=O)OC(C)(C)C)NC(=O)[C@@H]1C3` [Ko143], the EC50 in data set [5] is 943 nM; in data set [2], 1060 nM.
On to `O=C1c2c(O)ccc(O)c2C(=O)c2c(NCCNCCO)ccc(NCCNCCO)c21` [SMR000058480], for which the IC50 in data set [7] came out at 28 nM; in data set [8] it was 1500 nM.

What is called IC50 is the concentration that inhibits the measured activity by half. For orientation: EC50 means the concentration that produces a half-maximal response.

The values above are taken from BindingDB's records for doi:10.1021/acs.jmedchem.9b00963 (Hong Kong Polytechnic University, 2019).
